Laboratory results: ChEMBL document CHEMBL1121659 (J Med Chem, 1981)
Active and inactive are the calls of the source. The calls are words filed in the database; no cut-off is given here.

Assays:
Mus musculus [1] = experiment: Compound was evaluated for the dose required for protection against scMET-induced seizures after 4 hours of intraperitoneal administration; Inactive; format: functional, organism-based
Mus musculus [2] = experiment: Compound was evaluated for the dose required for protection against MES-induced seizures after 4 hours of intraperitoneal administration; Inactive; format: functional, organism-based
Mus musculus [3] = experiment: Compound was evaluated for the dose required for protection against scMET-induced seizures after 4 hours of intraperitoneal administration; format: functional
Mus musculus [4] = experiment: Compound was evaluated for the dose required for protection against MES-induced seizures after 4 hours of intraperitoneal administration at the doses< = 0.77-0.90 mM/kg; Inactive; format: functional, organism-based
Mus musculus [5] = experiment: Compound was evaluated for the neuro toxicity up to 4 hours after doses of <=300 mg/kg administered intraperitoneally; No toxicity; format: organism-based; conditions: in vivo, ip

Row | Compound | Activity (Mus musculus [1]) | Activity (Mus musculus [2]) | Activity (Mus musculus [3]) [mmol/kg] | Activity (Mus musculus [4]) | Neurotoxicity (Mus musculus [5])
1 | Cc1cccc(C2(c3cccc(C(F)(F)F)c3)NC(=O)NC2=O)c1 (stereo in doubt; 9) | inactive | inactive |  |  | 
2 | O=C1NC(=O)C(c2cccc(C(F)(F)F)c2)(c2cccc(C(F)(F)F)c2)N1 |  |  | 2.6 | inactive | No toxicity
